Experimental data reported in patent US11401270B2, “Alcoxyamino derivatives for treating pain and pain related conditions” (ESTEVE PHARMACEUTICALS, S.A., priority 2017, dated 2022).

Each molecule was assayed against Human α2δ-1 subunit of Cav2.2 calcium channel (Homo sapiens (Human), UniProt P54289) (assay: Binding Assay to Human α2δ-1 Subunit of Cav2.2 Calcium Channel). Conditions: Table 1; human α2δ-1 enriched membranes, 15 nM [3H]-Gabapentin; read-out: Ki(nM) alpha2delta Hum.
Experimental: Binding Assay to Human α2δ-1 Subunit of Cav2.2 Calcium Channel.
NSB (non specific binding) was measured by adding 10 μM pregabalin. The binding of the test compound was measured in five different concentrations. After 60 min incubation at 27° C., binding reaction was terminated by filtering through Multiscreen GF/C (Millipore) presoaked in 0.5% polyethyleneimine in Vacuum Manifold Station, followed by 3 washes with ice-cold filtration buffer containing 50 mM Tris-HCl, pH 7.4.
Filter plates were dried at 60° C. for 1 hour and 30 μl of scintillation cocktail were added to each well before radioactivity reading.

Chain of Human α2δ-1 subunit of Cav2.2 calcium channel (P54289 25-1103): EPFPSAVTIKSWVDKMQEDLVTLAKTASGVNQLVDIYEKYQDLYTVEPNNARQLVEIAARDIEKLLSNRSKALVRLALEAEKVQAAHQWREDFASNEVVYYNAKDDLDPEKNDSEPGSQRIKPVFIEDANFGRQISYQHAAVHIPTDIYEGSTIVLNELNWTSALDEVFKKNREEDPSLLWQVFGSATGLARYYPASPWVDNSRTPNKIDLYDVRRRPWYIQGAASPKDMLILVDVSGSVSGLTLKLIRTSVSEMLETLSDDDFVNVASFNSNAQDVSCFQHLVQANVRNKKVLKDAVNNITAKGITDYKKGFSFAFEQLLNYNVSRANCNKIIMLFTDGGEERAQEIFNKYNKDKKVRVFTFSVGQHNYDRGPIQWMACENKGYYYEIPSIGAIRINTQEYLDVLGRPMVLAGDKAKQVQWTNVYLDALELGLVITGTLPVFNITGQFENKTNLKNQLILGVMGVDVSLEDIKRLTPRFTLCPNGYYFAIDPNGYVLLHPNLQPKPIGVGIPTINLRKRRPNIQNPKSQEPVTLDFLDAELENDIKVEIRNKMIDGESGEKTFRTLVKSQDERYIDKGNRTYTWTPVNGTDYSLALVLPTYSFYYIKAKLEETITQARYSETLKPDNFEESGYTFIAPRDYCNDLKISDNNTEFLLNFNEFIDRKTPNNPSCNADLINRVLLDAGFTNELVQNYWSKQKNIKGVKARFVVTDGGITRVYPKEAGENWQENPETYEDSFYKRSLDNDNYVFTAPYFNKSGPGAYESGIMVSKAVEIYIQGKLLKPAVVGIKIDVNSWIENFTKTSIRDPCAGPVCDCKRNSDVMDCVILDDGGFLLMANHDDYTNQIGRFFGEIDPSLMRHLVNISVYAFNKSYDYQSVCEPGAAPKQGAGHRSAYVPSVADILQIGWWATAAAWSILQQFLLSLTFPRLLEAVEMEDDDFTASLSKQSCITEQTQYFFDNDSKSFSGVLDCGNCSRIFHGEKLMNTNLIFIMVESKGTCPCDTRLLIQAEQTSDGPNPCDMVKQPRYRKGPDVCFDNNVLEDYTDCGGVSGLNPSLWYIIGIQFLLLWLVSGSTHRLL

First: CNCC[C@H](Oc1ccc(CN2CCN(C)c3ncccc3C2=O)c(C2CC2)c1)c1ccccc1 [Example 133, (S)-4-(2-cyclopropyl-4-(3-(methylamino)-1-phenylpropoxy)benzyl)-1-methyl-1,2,3,4-tetrahydro-5H-pyrido[2,3-e][1,4]diazepin-5-one]
Second: CNCC[C@H](Oc1ccc(CN2CCN(C)c3ncccc3C2=O)c(C(F)(F)F)c1)c1ccccc1 [Example 130, (S)-1-methyl-4-(4-(3-(methylamino)-1-phenylpropoxy)-2-(trifluoromethyl)benzyl)-1,2,3,4-tetrahydro-5H-pyrido[2,3-e][1,4]diazepin-5-one]
The Ki of the first is higher: 100 to 500 nM for the first, less than 100 nM for the second.

`CNCCC(OCc1cccc(N2CCCN(C)CC2=O)c1)c1ccccc1` (stereo not drawn) [Example 36, 4-Methyl-1-(3-((3-(methylamino)-1-phenylpropoxy)methyl)phenyl)-1,4-diazepan-2-one] and `CNCC[C@@H](OCc1cccc(N2CCCN(C)CC2)c1)c1ccccc1` [Example 13, (R)-N-methyl-3-((3-(4-methyl-1,4-diazepan-1-yl)benzyl)oxy)-3-phenylpropan-1-amine] fall in the same range of Ki: 500 to 3000 nM for the first, 500 to 3000 nM for the second.

Going from `CNCCC(Oc1cccc(N2CCN(C)c3cc(F)cnc3C2=O)c1)c1cccs1` (stereo not drawn) [Example 74, 8-Fluoro-1-methyl-4-(3-(3-(methylamino)-1-(thiophen-2-yl)propoxy)phenyl)-1,2,3,4-tetrahydro-5H-pyrido[3,2-e][1,4]diazepin-5-one] to `CNCC[C@H](Oc1ccc(CN2CCN(C)c3ncc(F)cc3C2=O)c(C)c1)c1cccs1` [Example 125, (S)-7-fluoro-1-methyl-4-(2-methyl-4-(3-(methylamino)-1-(thiophen-2-yl)propoxy)benzyl)-1,2,3,4-tetrahydro-5H-pyrido[2,3-e][1,4]diazepin-5-one], the Ki falls from greater than 3000 nM to less than 100 nM.

First: CCNCCC(OCc1cccc(N2CCN(C)c3ccccc3C2=O)c1)c1ccccc1 (stereo not drawn) [Example 43, 4-(3-((3-(Ethylamino)-1-phenylpropoxy)methyl)phenyl)-1-methyl-1,2,3,4-tetrahydro-5H-benzo[e][1,4]diazepin-5-one]
Second: CNCC[C@@H](OCc1cccc(N2CCN(C)c3ccccc3C2=O)c1)c1cccc(F)c1 [Example 41, (R)-4-(3-((1-(3-fluorophenyl)-3-(methylamino)propoxy)methyl)phenyl)-1-methyl-1,2,3,4-tetrahydro-5H-benzo[e][1,4]diazepin-5-one]
The Ki of the first is lower: 100 to 500 nM for the first, greater than 3000 nM for the second. The first binds more tightly here.

`CNCCC(Oc1cccc(N2CCCCCC2=O)c1)c1ccccc1` (stereo not drawn) [Example 33, 1-(3-(3-(Methylamino)-1-phenylpropoxy)phenyl)azapan-2-one] and `CCNC[C@@H]1CN(C)CCN(c2cccc(O[C@@H](CCNC)c3ccccc3)c2)C1=O` [Example 25, (R)-6-((ethylamino)methyl)-1-methyl-4-(3-((S)-3-(methylamino)-1-phenylpropoxy)phenyl)-1,4-diazepan-5-one] cannot be ordered by Ki: greater than 3000 nM for the first, greater than 3000 nM for the second.

`CCNC1CCCN(c2cccc(O[C@@H](CCNC)c3cccs3)c2)C(=O)C1` (single isomer, unassigned) [Example 118b] and `CNCCC(Oc1cccc(N2CCNCCC2=O)c1)c1cccs1` (stereo not drawn) [Example 59, 4-(3-(3-(Methylamino)-1-(thiophen-2-yl)propoxy)phenyl)-1,4-diazepan-5-one] fall in the same range of Ki: 500 to 3000 nM for the first, 500 to 3000 nM for the second.

First: CNCCC(Oc1cccc(CN2CCN(C)c3ccccc3C2=O)c1)c1cccs1 (stereo not drawn) [Example 106, 1-Methyl-4-(3-(3-(methylamino)-1-(thiophen-yl)propoxy)benzyl)-1,2,3,4-tetrahydro-5H-benzo[e][1,4]diazepin-5-one]
Second: CNCC(OCc1ccc(CN2CCN(C)c3ccccc3C2=O)cc1)c1ccccc1 (stereo not drawn) [Example 109, 1-Methyl-4-(4-((2-(methylamino)-1-phenylethoxy)methyl)benzyl)-1,2,3,4-tetrahydro-5H-benzo[e][1,4]diazepin-5-one]
The Ki of the first is lower: 500 to 3000 nM for the first, greater than 3000 nM for the second.

With `CNCCC(OCc1cccc(N2CCN(C)c3nc(C)ccc3C2=O)c1)c1ccccc1` (stereo not drawn) [Example 48, 1,8-Dimethyl-4-(3-((3-(methylamino)-1-phenylpropoxy)methyl)phenyl)-1,2,3,4-tetrahydro-5H-pyrido[2,3-e][1,4]diazepin-5-one] the Ki was 500 to 3000 nM.
